According to US20090105463A1, “Compositions of and Methods of Using Oversulfated Glycosaminoglycans” (Massachusetts Institute of Technology, priority 2005, published 2009):

Tests used:
Type in all cases: cell-based, rat
[1] = system: VEGF-D; experiment: Whole cell ELISA for VEGF-D; conditions: FGF2 in the presence of PBS, heparin or DS DT, 24 hours
Experimental: (§1) ELISA was performed using whole cells to quantify relative levels of kinase activity. NBT-II cells were grown until confluence in 75 cm^2 flasks. Each flask was washed with 20 ml PBS and treated with 3 ml trypsin-EDTA at 37° C. for 3-5 minutes, until cells detached. Cells were centrifuged for 3 minutes at 195×g. The supernatant was aspirated, and the cells were resuspended in 10 ml media. The cell density was measured using an electronic cell counter, and the suspension was diluted to 50,000 cells/ml. 100 mm dishes were supplemented with 10 ml cell suspension per dish. After a 24 hour incubation, the media was aspirated, the dishes washed with serum free media, and the cells supplemented with media containing 0.1% FBS. After a 24 hour incubation, dishes were treated with PBS, 10 μg/ml heparin or 10 μg/ml DS DT. […] Cells were incubated for 30 minutes (for Erk1, Erk2, phosphor-Erk1/2, Mek1, Mek2, phospho-Mek1/2, Akt1/2 and phospho-Akt1/2/3) or 24 hours (for VEGF, VEGF-C and VEGF-D). Media were aspirated and cells were homogenized per manufacture instructions. Total protein concentration was determined by Bradford assay. […] The reaction was quenched with 3 M sulfuric acid, and the plates were analyzed using a UV plate reader at 450 nm. Data were quantified by comparing to a standardized curve with varying concentrations of protein from untreated cells.

[2] = system: NBT-II cells; experiment: Proliferation assay, whole cell number by electronic cell counter; set-up: reduction in whole cell number / reduction in cell number in the presence of FGF7: concentration or dose not given beside the values; conditions: for percent reduction in whole cell number ± standard deviation / proliferative effect of ligand in the absence of GAGs / reduction in whole cell number: no GAG; for proliferative effect of ligand in the absence of GAGs: ligand 10 ng/ml; for reduction in whole cell number: ligand alone; for reduction in whole cell number / reduction in cell number in the presence of FGF7: compared to untreated cells; for reduction in cell number in the presence of FGF7: ligand plus FGF7, no GAG
Experimental: NBT-II cells were grown until confluence in 75 cm^2 flasks. Each flask was washed with 20 ml PBS and treated with 3 ml trypsin-EDTA at 37° C. for ˜15 minutes until cells completely detached. Cells were centrifuged for 3 minutes at 195×g. The supernatant was aspirated, and the cells were resuspended in 10 ml media. Cell density was measured using an electronic cell counter, and the suspension was diluted to 50,000 cells/ml. The suspension was plated 1 ml/well into 24-well tissue culture plates. After a 24 hour incubation in a 5% CO2, 37° C. humidified incubator, the media was aspirated, the wells were washed with serum free media, and the cells were supplemented with media containing 0.1% FBS and incubated for 24 hours. Cells were sequentially treated with antibodies, GAGs and growth factors as appropriate. Sodium chlorate was added at 50 mM [30]. Antibodies to VEGFR2 or VEGFR3 were added to yield a final dilution of 1:100. All GAGs were initially added over a range of concentrations from 1 ng/ml to 100 μg/ml. Heparin, UDS and DS DT were subsequently added at 1 μg/ml unless otherwise noted. FGF1, FGF2, FGF7 and VEGF were added at 10 ng/ml unless otherwise noted. Cells were then incubated for 72 hours. Wells were then washed twice with PBS and treated with 0.5 ml trypsin-EDTA/well and incubated for 10 minutes at 37° C. Whole cell number was determined using an electronic cell counter.

[3] = system: VEGF-C; experiment: Whole cell ELISA for VEGF-C
Experimental: as §1

[4] = system: VEGFR3; experiment: Whole cell ELISA for VEGFR3; conditions: addition of ligand, 24 hours
Experimental: (§2) ELISA was performed using whole cells to quantify relative levels of kinase activity. NBT-II cells were grown until confluence in 75 cm^2 flasks. Each flask was washed with 20 ml PBS and treated with 3 ml trypsin-EDTA at 37° C. for 3-5 minutes, until cells detached. Cells were centrifuged for 3 minutes at 195×g. The supernatant was aspirated, and the cells were resuspended in 10 ml media. The cell density was measured using an electronic cell counter, and the suspension was diluted to 50,000 cells/ml. 100 mm dishes were supplemented with 10 ml cell suspension per dish. After a 24 hour incubation, the media was aspirated, the dishes washed with serum free media, and the cells supplemented with media containing 0.1% FBS. After a 24 hour incubation, dishes were treated with PBS, 10 μg/ml heparin or 10 μg/ml DS DT. Subsequently, cells were treated with 10 ng/ml FGF7, 10 ng/ml VEGF or both. Cells were incubated for 30 minutes (for Erk1, Erk2, phosphor-Erk1/2, Mek1, Mek2, phospho-Mek1/2, Akt1/2 and phospho-Akt1/2/3) or 24 hours (for VEGF, VEGF-C and VEGF-D). […] Total protein concentration was determined by Bradford assay. […] The reaction was quenched with 3 M sulfuric acid, and the plates were analyzed using a UV plate reader at 450 nm. Data were quantified by comparing to a standardized curve with varying concentrations of protein from untreated cells.

[5] = system: phospho-Akt1/2/3 (Thr 308); experiment: Whole cell ELISA for phospho-Akt1/2/3 (Thr 308); conditions: ligand in the presence of PBS (no GAG)
Experimental: as §2

[6] = FGF7: ligand (10 ng/ml) or PBS plus FGF7 at 10 ng/ml

Row | Molecule | percent reduction in whole cell number ± standard deviation [2, 6] | percent reduction in whole cell number ± standard deviation ([2]; PBS: ligand at 10 ng/ml alone) | proliferative effect of ligand in the absence of GAGs [2] | reduction in whole cell number [2] | reduction in cell number in the presence of FGF7 [2] | VEGFR3 production [4] | also measured
1 | FGF2: Recombinant human FGF2, gift from Scios | 30.4 ± 8.7% | 18.3 ± 5.0% | reduced whole cell number |  |  |  | production of VEGF-D [1]: did not alter; production of VEGF-C ([3]; FGF2 in the presence of PBS, heparin or DS DT, 24 hours): did not alter
2 | VEGF | 30.1 ± 7.0% | 19.8 ± 4.5% | reduced whole cell number | 19.8±4.5% | 30.1±7.0% | not | VEGF-C levels ([3]; ligand over 24 hours, regardless of GAG used): increased
3 | FGF1: Recombinant FGF1, gift from Amgen | 18.0 ± 2.6% | 5.4 ± 8.3% | did not induce significant proliferative effects |  |  |  | 
4 | VEGF-D: vascular endothelial growth factor D, ligand of VEGFR2 and VEGFR3 (protein, UniProt O43915 89-205, looked up) Vascular endothelial growth …: FAATFYDIETLKVIDEEWQRTQCSPRETCVEVASELGKSTNTFFKPPCVNVFRCGGCCNEESLICMNTSTSYISKQLFEISVPLTSVPELVPVKVANHTGCKCLPTAPRHPYSIIRR |  |  |  | 16.2±10.8% | 34.5±1.5% |  | 
5 | VEGF-C: vascular endothelial growth factor C, ligand of VEGFR2 and VEGFR3 (protein, UniProt P49767 112-227, looked up) Vascular endothelial growth …: AHYNTEILKSIDNEWRKTQCMPREVCIDVGKEFGVATNTFFKPPCVSVYRCGGCCNSEGLQCMNTSTSYLSKTLFEITVPLSQGPKPVTISFANHTSCRCMSKLDVYRQVHSIIRR |  |  |  | 13.4±8.7% | 5.9±5.0% |  | 
6 | FGF7: Recombinant FGF7 from Sigma (protein, UniProt P21781 32-194, looked up) Fibroblast growth factor 7: CNDMTPEQMATNVNCSSPERHTRSYDYMEGGDIRVRRLFCRTQWYLRIDKRGKVKGTQEMKNNYNIMEIRTVAVGIVAIKGVESEFYLAMNKEGKLYAKKECNEDCNFKELILENHYNTYASAKWTHNGGEMFVALNQKGIPVRGKKTKKEQKTAHFLPMAIT | 14.1 ± 2.5% |  |  | 14.1±2.5% |  | increase | increase in whole cell number ([2]; FGF7 alone, cells treated with 50 mM sodium chlorate): 28.4±11.8%; concentration eliciting maximal effect on cell growth ([2]; dose response, no sodium chlorate, effect constant through 100 ng/ml): 5 ng/mL; concentration at which maximal proliferative effect is achieved ([2]; in the presence of 50 mM sodium chlorate): 10 ng/mL; reduction of phosphorylation of Akt1/2/3 (Thr 308) [5]: ~20%
